Several values for one entry are separate records, joined by “and”; a condition that tells them apart may be missing. Equal values may be shown once. Read-outs that look alike come from different tables or passages of the source.
Assays:
[1] = target: T1, CYP1A2 (Homo sapiens, UniProt P05177); test: Reversible CYP inhibition in human liver microsomes; details: for activity at 0.01 µM / activity at 0.158 µM / activity at 0.398 µM / activity at 1 µM / activity at 15.8 µM / activity at 39.8 µM / activity at 100 µM: human, microsomes, pH 7.4, Percent of Control Activity
T1 sequence (P05177 1-516): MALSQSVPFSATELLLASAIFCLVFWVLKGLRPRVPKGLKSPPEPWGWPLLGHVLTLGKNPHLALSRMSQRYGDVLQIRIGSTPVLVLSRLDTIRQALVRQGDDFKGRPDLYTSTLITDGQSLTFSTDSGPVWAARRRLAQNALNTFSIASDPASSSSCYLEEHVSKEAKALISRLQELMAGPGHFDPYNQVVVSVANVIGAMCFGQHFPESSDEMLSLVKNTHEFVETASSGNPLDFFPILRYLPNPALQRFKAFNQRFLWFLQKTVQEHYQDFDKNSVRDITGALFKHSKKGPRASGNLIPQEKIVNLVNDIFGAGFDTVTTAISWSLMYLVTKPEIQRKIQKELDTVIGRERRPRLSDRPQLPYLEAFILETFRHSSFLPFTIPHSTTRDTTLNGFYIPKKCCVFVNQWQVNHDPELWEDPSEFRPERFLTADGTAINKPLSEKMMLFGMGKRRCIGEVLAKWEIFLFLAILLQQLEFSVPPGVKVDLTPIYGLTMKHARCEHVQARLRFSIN

[2] = Monkey pharmacokinetic study; details: for Vd: Vdss
[3] = system: CYP3A4/5; test: Time-dependent inhibition of CYP enzymes in human liver microsomes; details: pooled HLM
[4] = target: CYP2C9 (Homo sapiens, UniProt P11712); test: Reversible CYP inhibition in human liver microsomes; details: for activity at 0.01 µM / activity at 0.158 µM / activity at 0.398 µM / activity at 1 µM / activity at 15.8 µM / activity at 39.8 µM / activity at 100 µM: human, microsomes, pH 7.4, Percent of Control Activity
Sequence of CYP2C9 (P11712 whole entry): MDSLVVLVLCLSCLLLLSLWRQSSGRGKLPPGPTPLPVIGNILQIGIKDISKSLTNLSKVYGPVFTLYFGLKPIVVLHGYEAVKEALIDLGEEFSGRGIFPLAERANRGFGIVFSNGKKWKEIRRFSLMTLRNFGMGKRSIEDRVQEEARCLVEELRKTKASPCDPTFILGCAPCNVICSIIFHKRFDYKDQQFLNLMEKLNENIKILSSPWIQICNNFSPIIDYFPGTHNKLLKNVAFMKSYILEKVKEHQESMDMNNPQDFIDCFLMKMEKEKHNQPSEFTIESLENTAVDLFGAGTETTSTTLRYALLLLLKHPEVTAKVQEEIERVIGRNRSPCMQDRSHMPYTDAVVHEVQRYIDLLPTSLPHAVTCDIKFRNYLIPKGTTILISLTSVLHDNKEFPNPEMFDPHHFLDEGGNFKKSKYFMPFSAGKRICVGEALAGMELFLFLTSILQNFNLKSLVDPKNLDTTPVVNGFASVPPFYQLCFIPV

[5] = target: T2, MATE1 (Homo sapiens, UniProt Q96FL8); test: Transporter inhibition using transfected HEK293 cells; details: IC50, [14C]Metformin (20 µM)
T2 sequence (Q96FL8 1-570): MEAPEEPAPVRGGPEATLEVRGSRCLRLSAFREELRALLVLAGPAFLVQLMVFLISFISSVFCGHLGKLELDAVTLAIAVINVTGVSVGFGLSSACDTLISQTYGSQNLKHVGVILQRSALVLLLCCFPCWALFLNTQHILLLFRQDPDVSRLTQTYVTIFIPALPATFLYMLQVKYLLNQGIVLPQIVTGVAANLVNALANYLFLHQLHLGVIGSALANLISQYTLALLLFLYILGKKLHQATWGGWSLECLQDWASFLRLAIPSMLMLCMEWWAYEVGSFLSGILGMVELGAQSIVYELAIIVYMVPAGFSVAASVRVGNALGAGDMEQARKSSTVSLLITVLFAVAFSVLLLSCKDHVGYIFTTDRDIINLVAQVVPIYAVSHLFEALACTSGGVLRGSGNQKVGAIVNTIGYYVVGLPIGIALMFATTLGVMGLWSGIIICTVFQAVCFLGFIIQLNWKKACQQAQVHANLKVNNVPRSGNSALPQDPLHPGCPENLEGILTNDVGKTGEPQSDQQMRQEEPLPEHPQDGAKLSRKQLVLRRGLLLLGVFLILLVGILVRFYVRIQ

[6] = monkey, PF-07304814 prodrug dosed […] intravenous, individual monkeys, […]

COc1cccc2[nH]c(C(=O)N[C@@H](CC(C)C)C(=O)N[C@@H](C[C@@H]3CCNC3=O)C(=O)COP(=O)(O)O)cc12 [PF-07304814]
IC50 [1]: > 100 µM
Percent of Control Activity ([1]; CYP 1A2, 0.01 µM, 30-Minute Preincubation, 0.01 µM): 103.6% and 101.2%
Percent of Control Activity ([1]; CYP 1A2, 0.01 µM, Zero-Minute Preincubation, 0.01 µM): 97.5%
Percent of Control Activity ([1]; CYP 1A2, 0.158 µM, 30-Minute Preincubation, 0.158 µM): 95.4% and 101.9%
Percent of Control Activity ([1]; CYP 1A2, 0.158 µM, Zero-Minute Preincubation, 0.158 µM): 97.0% and 100.9%
Percent of Control Activity ([1]; CYP 1A2, 0.398 µM, 30-Minute Preincubation, 0.398 µM): 101.4% and 101.2%
Percent of Control Activity ([1]; CYP 1A2, 0.398 µM, Zero-Minute Preincubation, 0.398 µM): 96.0% and 97.7%
Percent of Control Activity ([1]; CYP 1A2, 1 µM, 30-Minute Preincubation, 1 µM): 102.8% and 101.6%
Percent of Control Activity ([1]; CYP 1A2, 1 µM, Zero-Minute Preincubation, 1 µM): 94.7% and 96.1%
Percent of Control Activity ([1]; CYP 1A2, 15.8 µM, 30-Minute Preincubation, 15.8 µM): 103.2%
Percent of Control Activity ([1]; CYP 1A2, 39.8 µM, 30-Minute Preincubation, 39.8 µM): 101.7% and 102.7%
Percent of Control Activity ([1]; CYP 1A2, 39.8 µM, Zero-Minute Preincubation, 39.8 µM): 98.4% and 99.6%
Percent of Control Activity ([1]; CYP 1A2, 100 µM, 30-Minute Preincubation, 100 µM): 104.3% and 102.5%
Percent of Control Activity ([1]; CYP 1A2, 100 µM, Zero-Minute Preincubation, 100 µM): 94.4% and 97.1%
IC50 ([1]; Phenacetin O-dealkylation, 30-minute preincubation (T30)): > 100 µM
activity at 0.01 µM ([1]; CYP 1A2, 0.01 µM, 30-Minute Preincubation): 96.7%
activity at 0.01 µM ([1]; CYP 1A2, 0.01 µM, Zero-Minute Preincubation): 100%
activity at 0.158 µM ([1]; CYP 1A2, 0.158 µM, 30-Minute Preincubation): 102%
activity at 0.158 µM ([1]; CYP 1A2, 0.158 µM, Zero-Minute Preincubation): 96.4%
activity at 0.398 µM ([1]; CYP 1A2, 0.398 µM, 30-Minute Preincubation): 102%
activity at 0.398 µM ([1]; CYP 1A2, 0.398 µM, Zero-Minute Preincubation): 98.5%
activity at 1 µM ([1]; CYP 1A2, 1 µM, 30-Minute Preincubation): 100%
activity at 1 µM ([1]; CYP 1A2, 1 µM, Zero-Minute Preincubation): 99.4%
activity at 15.8 µM ([1]; CYP 1A2, 15.8 µM, 30-Minute Preincubation): 102%
activity at 15.8 µM ([1]; CYP 1A2, 15.8 µM, Zero-Minute Preincubation): 100%
activity at 39.8 µM ([1]; CYP 1A2, 39.8 µM, 30-Minute Preincubation): 102%
activity at 39.8 µM ([1]; CYP 1A2, 39.8 µM, Zero-Minute Preincubation): 98.5%
activity at 100 µM ([1]; CYP 1A2, 100 µM, 30-Minute Preincubation): 103%
activity at 100 µM ([1]; CYP 1A2, 100 µM, Zero-Minute Preincubation): 97.8%
clearance ([2]; male, cynomolgus monkey, plasma, iv, Cl, monkey IV (n=2, range), PF-07304814 […], PF-00835231 1.0mg/kg): 191 mL/min/kg
half-life ([2]; male, cynomolgus monkey, plasma, iv, Terminal T1/2, monkey IV (n=2, range), PF-07304814 […], PF-00835231 1.0mg/kg): 2.6 h
Vd ([2]; male, cynomolgus monkey, plasma, iv, monkey IV (n=2, range), PF-07304814 […], PF-00835231 1.0mg/kg): 1.8 L/kg
clearance ([2]; male, cynomolgus monkey, plasma, iv, […], Clearance, Mean Data, monkey, PF-07304814 prodrug dosed […] intravenous, mean): 191 mL/min/kg
clearance ([2]; male, cynomolgus monkey, plasma, iv, […], Clearance, monkey, PF-07304814 prodrug dosed […] intravenous, individual monkeys): 252 mL/min/kg
half-life ([2]; male, cynomolgus monkey, plasma, iv, […], Half life, Mean Data, monkey, PF-07304814 prodrug dosed […] intravenous, mean): 2.6 h
half-life ([2]; male, cynomolgus monkey, plasma, iv, […], Half life, monkey, PF-07304814 prodrug dosed […] intravenous, individual monkeys): 2.2 h
Vd ([2]; male, cynomolgus monkey, plasma, iv, […], Mean Data, monkey, PF-07304814 prodrug dosed […] intravenous, mean): 1.78 L/kg
%unchanged in urine ([2]; monkey IV, PF-07304814 […], PF-00835231 1.0mg/kg): < 0.1%
Total Concn, Mean Data ([2]; monkey plasma, PF-07304814 prodrug dosed […] intravenous, time 7 h, mean, BLQ=0.1ng/mL): BLQ
Urine Concn ([2]; monkey urine 0-7h, PF-07304814 prodrug dosed […] intravenous, individual monkeys, BLQ=1ng/mL for urine): BLQ
Half life [2, 6]: 3.0 h
clearance [2, 6]: 129 mL/min/kg
time-dependent inhibition (TDI) signal [3]: no evidence of TDI
IC50 [4]: > 100 µM
Percent of Control Activity ([4]; CYP 2C9, 0.01 µM, 30-Minute Preincubation, 0.01 µM): 99.6% and 105.4%
Percent of Control Activity ([4]; CYP 2C9, 0.01 µM, Zero-Minute Preincubation, 0.01 µM): 102.7% and 88.8%
Percent of Control Activity ([4]; CYP 2C9, 0.158 µM, 30-Minute Preincubation, 0.158 µM): 97.3% and 103.8%
Percent of Control Activity ([4]; CYP 2C9, 0.158 µM, Zero-Minute Preincubation, 0.158 µM): 103.7% and 96.2%
Percent of Control Activity ([4]; CYP 2C9, 0.398 µM, 30-Minute Preincubation, 0.398 µM): 96.2%
Percent of Control Activity ([4]; CYP 2C9, 0.398 µM, Zero-Minute Preincubation, 0.398 µM): 103.2% and 91.4%
Percent of Control Activity ([4]; CYP 2C9, 1 µM, 30-Minute Preincubation, 1 µM): 98.0% and 100.0%
Percent of Control Activity ([4]; CYP 2C9, 1 µM, Zero-Minute Preincubation, 1 µM): 88.9%
Percent of Control Activity ([4]; CYP 2C9, 15.8 µM, 30-Minute Preincubation, 15.8 µM): 97.7% and 102.2%
Percent of Control Activity ([4]; CYP 2C9, 15.8 µM, Zero-Minute Preincubation, 15.8 µM): 104.1% and 92.6%
Percent of Control Activity ([4]; CYP 2C9, 39.8 µM, 30-Minute Preincubation, 39.8 µM): 98.6% and 102.8%
Percent of Control Activity ([4]; CYP 2C9, 39.8 µM, Zero-Minute Preincubation, 39.8 µM): 101.8% and 92.4%
Percent of Control Activity ([4]; CYP 2C9, 100 µM, 30-Minute Preincubation, 100 µM): 97.1% and 95.4%
Percent of Control Activity ([4]; CYP 2C9, 100 µM, Zero-Minute Preincubation, 100 µM): 91.7%
IC50 ([4]; Diclofenac 4′-hydroxylation, T30): > 100 µM
activity at 0.01 µM ([4]; CYP 2C9, 0.01 µM, 30-Minute Preincubation): 100%
activity at 0.01 µM ([4]; CYP 2C9, 0.01 µM, Zero-Minute Preincubation): 98.2%
activity at 0.158 µM ([4]; CYP 2C9, 0.158 µM, 30-Minute Preincubation): 98.3%
activity at 0.158 µM ([4]; CYP 2C9, 0.158 µM, Zero-Minute Preincubation): 103%
activity at 0.398 µM ([4]; CYP 2C9, 0.398 µM, 30-Minute Preincubation): 106%
activity at 0.398 µM ([4]; CYP 2C9, 0.398 µM, Zero-Minute Preincubation): 102%
activity at 1 µM ([4]; CYP 2C9, 1 µM, 30-Minute Preincubation): 100%
activity at 1 µM ([4]; CYP 2C9, 1 µM, Zero-Minute Preincubation): 100%
activity at 15.8 µM ([4]; CYP 2C9, 15.8 µM, 30-Minute Preincubation): 98.8%
activity at 15.8 µM ([4]; CYP 2C9, 15.8 µM, Zero-Minute Preincubation): 106%
activity at 39.8 µM ([4]; CYP 2C9, 39.8 µM, 30-Minute Preincubation): 101%
activity at 39.8 µM ([4]; CYP 2C9, 39.8 µM, Zero-Minute Preincubation): 105%
activity at 100 µM ([4]; CYP 2C9, 100 µM, 30-Minute Preincubation): 96.5%
activity at 100 µM ([4]; CYP 2C9, 100 µM, Zero-Minute Preincubation): 101%
IC50 [5]: > 300 µM

Source: PMC8523698, “Preclinical characterization of an intravenous coronavirus 3CL protease inhibitor for the potential treatment of COVID19” (Nature Communications, 2021)
